“And” between values parts separate entries of the source, which are not always exact repeats. Equal entries are not always repeated. “Also recorded” adds a separate entry of the source. Where two headings read alike, the source gives them in different places. Values belong to the compound of their own block, whether it stands above or below them.
Legend:
[1] = system: TPA-induced ornithine decarboxylase (ODC); assay: Inhibition of TPA-induced ornithine decarboxylase (ODC) in mouse skin; assay type: in vivo
From the text: (§1) Earlier, several alkyl, alkenyl, or alkynyl retinyl ethers had been assayed for inhibition of TPA-induced ornithine decarboxylase (ODC) in mouse skin and for the suppression of DMBA-initiated and TPA-promoted mouse-skin papillomas (Shealy et al., 1997). In comparison with control groups, these retinyl ethers were ineffective. Only a few representatives of the benzyl ethers were selected for tests in these assays. […] Because of these and the earlier results (Shealy et al., 1997), testing of retinyl benzyl ethers in the ODC and papilloma assays was discontinued.

[2] = target: T1, cellular retinol-binding protein (CRBP) (Rattus norvegicus, UniProt P02696); assay: Binding to cellular retinol-binding protein (CRBP): inhibition of [3H]retinol binding, sucrose density-gradient sedimentation; conditions: for Percent Inhibition of [3H] Retinol Binding (CRBP Assay): 150-fold molar excess of unlabelled test retinoid, rat testes cytosol
T1 construct: portions of rat testes cytosol (1 mg protein) were incubated; from tissue; host or cells: rat testes cytosol
T1 sequence (P02696 1-135): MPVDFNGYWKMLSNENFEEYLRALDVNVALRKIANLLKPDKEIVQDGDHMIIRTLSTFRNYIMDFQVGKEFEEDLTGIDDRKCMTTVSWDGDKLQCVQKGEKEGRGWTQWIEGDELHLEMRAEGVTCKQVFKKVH
Protocol: Binding affinities of the retinyl ethers for CRBP were determined by sucrose, density-gradient, sedimentation analysis as described before (Sani et al., 1980). Briefly, portions of rat testes cytosol (1 mg protein) were incubated with [^3 H]retinol (50 pmol) in the presence or absence of a 150-fold molar excess of unlabeled retinol or the test retinoids. The preparations after dialysis were analyzed by 5-20% sucrose density gradient sedimentation. For measuring the competitive binding of the unlabeled retinoids, inhibition of [^3 H]retinol binding to CRBP by unlabeled retinol is regarded as 100%. The mean and standard deviation calculated from the relative inhibitions obtained from multiple determinations were used as the relative binding affinities of the various retinyl ethers.
The group of retinyl benzyl ethers has now been evaluated for binding to CRBP. Binding to CRBP, as defined for Table I, at approximately 60% or higher was rated as strong; at 40-60%, as moderate; at 20-40%, as low.
^a Per cent inhibition of binding of tritiated retinol to CRBP by a
150-fold molar excess of the unlabelled test retinoid (Sani et al., 1980,

mouse-skin papillomas = assay: Suppression of DMBA-initiated and TPA-promoted mouse-skin papillomas; assay type: in vivo; conditions: mouse-skin papilloma assay
From the text: as §1

[3] = system: MNU-induced mammary cancer; assay: Short-term (90-day) assay against MNU-induced mammary cancer in rats (Expts. 2 and 3); assay type: in vivo, rat (female Sprague-Dawley)
Protocol: Retinoid diet mixtures were stored at 4° C. […] The animals were palpated for mammary tumors 2×/week. […] Also, five rats/group had complete necropsies performed.
The 2,5-dimethoxybenzyl (3b) and 4-methoxybenzyl (3e) ethers were tested in the same way in a 90-day study. […] The 2,5-dimethybenzyl (3c) and the 2,3-dimethoxybenzyl (3h) ethers, together with RTMBE for comparison, were likewise assayed according to the same methodology. Prior to the beginning of this study, specimens of the retinoid-diet mixtures were placed under the conditions that were employed during the storage and feeding of RTMBE, 3c, and 3h. The specimens were extracted with butanol, and the extracts were analyzed by HPLC. […] Testing of 3c and 3h was discontinued, but the RTMBE study was continued until the duration of the study was 180 days (Table 6). The results were similar to those of Experiment 1 (Table 3). The averages of the number of tumors per rat were reduced by 32-35%; in addition, the averages of the tumor weights per rat was 56-70% lower than the average tumor burden of the control group.
and was continued until the studies of 3b, 3c, 3e, and 3h were terminated
90 days after administration of MNU. The RTMBE experiment was continued
until 180 days after MNU administration (Table VI).
kilogram of Teklad diet.

[4] = Stability of retinyl ethers in storage and in solution; assay type: physicochemical; conditions: weakly acidic ethanol solution
[5] = Mammary tissue-to-plasma concentration after intravenous dosing; assay type: in vivo, rat (female Sprague-Dawley); conditions: rat, 5 mg/kg i.v., after 24 hr, read-out: ratio of mammary tissue-to-plasma concentrations
[6] = Shealy et al., 1997, cited from earlier work; for toxicity in mammary carcinogenesis study: 2 mmol/kg of diet; for toxic dose in the feed after 90 days: Sprague-Dawley rats
[7] = system: NADPH-requiring enzymes in rat liver microsomes; conditions: literature; cited from earlier work
[8] = rat, in feed; Shealy et al., 1997; cited from earlier work
[9] = system: carcinogen-induced mammary cancer; conditions: cited from earlier work; for suppression of MNU-induced mammary cancer: Thompson et al., 1978 / Shealy et al.
[10] = system: serum retinol-binding protein (RBP); conditions: 150-fold molar excess; Sani et al., 1996; cited from earlier work
[11] = Toxicity of retinyl ethers in mice by gavage during 28-29 days
Protocol: Toxicological evaluations involving measurement of body weights and observations of clinical signs characteristic of retinoid toxicity were accomplished as previously described (Lin et al., 1996).
RTMBE and two of its analogues, together with RME and RPE, were selected for estimation of their toxicities to mice when administered during 28-29 days by gavage in corn oil (Table 8). Mice were evaluated for changes in body weight and for signs of clinical retinoid toxicity (hypervitaminosis A) including alopecia, scaly skin, and limping. In the first experiment, these retinyl ethers were given at equimicromolar doses at three dose levels. The retinyl benzyl ethers (RTMBE, 3c, and 3e) were then tested at higher doses in a second experiment.

[12] = target: T1, cellular retinol-binding protein (CRBP); conditions: Sani, 1993; Sani et al., 1996; Shealy et al., 1997; cited from earlier work
[13] = cited from earlier work; for stability in refluxing ethanol: 24 hours or similar, protected from light and air, Shealy et al, 1997
[14] = Shealy et al., 1997; cited from earlier work
[15] = system: serum retinol-binding protein (RBP); assay: Binding to serum retinol-binding protein (RBP): inhibition of [3H]retinol binding; conditions: % of that of retinol
[16] = system: MNU-induced mammary tumors
Protocol: The methods employed in the preparation of diets, analyses of retinoid-dietspecimens, and dietary treatment with retinoids of MNU-induced mammary carcinogenesis in Sprague-Dawley rats were described previously (Grubbs et al., 1995; Shealy et al., 1997). Briefly, diets were prepared by mixing each retinoid with Wayne meal or Teklad (4%) mash diet. For each kg of diet, the retinoid was dissolved in 12 g ethanol, 19 g trioctanoin, 0.05 mL Tenox 20, and 0.05 mL d,1-alpha tocopherol prior to incorporation into the feed using a Patterson-Kelly blender. Retinoid diet mixtures were stored at 4° C. Portions of each retinoid-diet mixture were analyzed for the added retinoid to ensure homogeneity. Female Sprague-Dawley rats received an i.v. injection of MNU (45 mg/kg body weight) at 50 days of age. Diet supplementation with retinoids was initiated three days after MNU. A group of rats receiving retinyl acetate (1 mmol/kg of diet) served as the positive control. The animals were palpated for mammary tumors 2×/week. At termination of the study, mammary tumors were processed for histological classification. Also, five rats/group had complete necropsies performed. The tissues were examined histologically for pathological lesions as additional toxicological evaluation. Extracts of the liver and mammary gland (5 rats/group) were analyzed by HPLC for retinyl palmitate and/or for the dosed retinoid. Statistical analyses of cancer incidence and latency were determined using logrank analysis, while differences in cancer multiplicity were determined employing the Armitage test.
^b Average number of palpable mammary tumors.
^c Diet supplementation with retinoids was initiated at 52 days of age
and was continued until the study was terminated 180 days after
administration of MNU. Treatment with retinoids is stated in millimoles of
retinoid per kilogram of diet (Wayne meal).
^d Female Sprague-Dawley rats received one i.v. injection of MNU (50
mg/kg of body weight) at 50 days of age.

[17] = Expt. 2, 0.5 mmol/kg diet, 90 days
[18] = Expt. 2, 1 mmol/kg diet, 90 days
[19] = Expt. 2, 2 mmol/kg diet, 90 days
[20] = oral gavage in corn oil, 28-29 days

activity in ODC assay [1]: not active in the ODC assay | Percent Inhibition of [3H] Retinol Binding (CRBP Assay) [2]: 62 ± 8%
SMILES: COc1ccc(COC/C=C(C)/C=C/C=C(C)/C=C/C2=C(C)CCCC2(C)C)cc1OC [Compound 3a, Retinyl 3,4-Dimethoxybenzyl Ether]
inhibition of papilloma formation (mouse-skin papillomas): ineffective in inhibiting papilloma formation

activity in ODC assay [1]: not active in the ODC assay | stability in weakly acidic ethanol (formation of anhydroretinol, 4) [4]: 4 is isolated | Kp at 24 h [5]: 38 ± 20 | binding to CRBP, in words ([2]; 150-fold molar excess): good binder to CRBP | Percent Inhibition of [3H] Retinol Binding (CRBP Assay) [2]: 59 ± 13%
SMILES: COc1ccc(OC)c(COC/C=C(C)/C=C/C=C(C)/C=C/C2=C(C)CCCC2(C)C)c1 [Compound 3b, Retinyl 2,5-Dimethoxybenzyl Ether]
effectiveness compared with RTMBE ([3]; 90-day assays, MNU-induced mammary carcinogenesis): less effective than was RTMBE | reductions in the number of tumors per rat ([3]; 90-day study, 1 and 2 mmol/kg of diet): 26-52% | effectiveness in reducing the number of tumors per rat ([3]; 90 days, in feed): effective | Tumors, % of Control Gp. [3, 17]: 77% | Tumors, Avg. No. per Rat [3, 17]: 2.7 | Tumors, % of Control Gp. [3, 18]: 48% | Tumors, Avg. No. per Rat [3, 18]: 1.7 | Tumors, % of Control Gp. [3, 19]: 74% | Tumors, Avg. No. per Rat [3, 19]: 2.6 | inhibition of papilloma formation (mouse-skin papillomas): ineffective in inhibiting papilloma formation

SMILES: COC/C=C(C)/C=C/C=C(C)/C=C/C1=C(C)CCCC1(C)C [RME, retinyl methyl ether]
toxicity in mammary carcinogenesis study [6]: RME was (at 2 mmol/kg of diet) | toxic dose in the feed after 90 days [6]: > 1 mmole/kg of diet and < 2 mmole/kg of diet | conversion (demethylation) to retinol or its analogue [7]: demethylated to retinol in rat liver; also recorded: converted, respectively, to retinol or its TMMP analogue; also recorded: demethylation of RME by microsomal oxidases to retinol | accumulation of retinyl palmitate in the liver [8]: a toxic effect produced by efficacious amounts | suppression of 7,12-DMBA-induced mammary cancer ([9]; rats, Grubbs et al, 1977): suppress | suppression of MNU-induced mammary cancer ([9]; rats, 1997): suppress | inhibition of binding of tritiated retinol (RBP), relative to retinol [10]: 100% | Toxic Dose [11, 20]: > 20 mg/kg day and < 40 mg/kg day | toxic dose from body-weight data [11, 20]: < 40 mg/kg/day | binding to CRBP [12]: bind to cellular retinol-binding protein (CRBP) | stability in refluxing ethanol [13]: only minor degradation

SMILES: C#CCOC/C=C(C)/C=C/C=C(C)/C=C/C1=C(C)CCCC1(C)C [RPE, retinyl propynyl ether]
recovery from the feed of rats [14]: recoverable from the feed of rats | toxicity in mammary carcinogenesis study [6]: not toxireas | toxic dose in the feed after 90 days [6]: > 2 mmole/kg of diet | inhibition of [3H] retinol-binding (RBP), relative to that of retinol [15]: 70% | accumulation in mammary tissue [8]: accumulated in rat mammary tissue | accumulation of retinyl palmitate in the liver [8]: did not cause; also recorded: some increase in retinyl palmitate in the liver | reduction of average number of tumors per rat ([9]; earlier 90-day study, 2 mmol/kg of diet, MNU, Shealy et al., 1997): 48% | suppression of MNU-induced mammary cancer ([9]; rats, 1997): inhibited the development of MNU-induced mammary cancer; also recorded: more effective than retinyl acetate | reduction of average number of tumors per rat ([16]; after 90 days, 2 mmol/kg diet (Table 7)): 44% | reduction in the average number of tumors per rat ([16]; by the end of the 180-day study, 2 mmol/kg diet (Table 7)): 16% | % of Control Gp., Day 90 ([16]; with MNU, 0.5 mmol/kg diet): 74% | % of Control Gp., Day 180 ([16]; with MNU, 0.5 mmol/kg diet): 97% | Avg No. Per Rat (palpable mammary tumors), Day 90 ([16]; with MNU, 0.5 mmol/kg diet): 1.7 | Avg No. Per Rat (palpable mammary tumors), Day 180 ([16]; with MNU, 0.5 mmol/kg diet): 6.2 | % of Control Gp., Day 90 ([16]; with MNU, 2 mmol/kg diet): 56% | % of Control Gp., Day 180 ([16]; with MNU, 2 mmol/kg diet): 84% | Avg No. Per Rat (palpable mammary tumors), Day 90 ([16]; with MNU, 2 mmol/kg diet): 1.3 | Avg No. Per Rat (palpable mammary tumors), Day 180 ([16]; with MNU, 2 mmol/kg diet): 5.4 | Avg No. Per Rat (palpable mammary tumors), Day 180 ([16]; without MNU, 0.5 mmol/kg diet): 0 | Avg No. Per Rat (palpable mammary tumors), Day 180 ([16]; without MNU, 2 mmol/kg diet): 0 | NOAEL ([11]; mouse, in vivo, po): 43 mg/kg/day | Toxic Dose [11, 20]: > 43 mg/kg day | stability in refluxing ethanol [13]: intramolecular cyclization | stability in the solid state and in solution ([13]; Shealy et al., 1996, 1997): slowly undergoes an intramolecular Diels-Alder reaction

From patent publication US6281250A, “Retinyl ethers, derivatives and analogues and inhibition of breast carcinogenesis” (Southern Research Institute, priority 1999, dated 2001)
